Measurements as given in patent publication US20210246109A1, “POTENT AND SELECTIVE INHIBITORS OF CYTOCHROME P450” (University of Kentucky Research Foundation, priority 2020, published 2021).
Values joined by “and” are separate entries in the source; they are usually repeats but may differ in a detail not shown here. Identical values can stand only once. Like-named read-outs stand apart in the source and are kept apart here.

How the values were obtained:
[1] = target: T1, pooled human liver microsomes (pHLMs) (Homo sapiens, UniProt P05177); assay: EROD counterscreen in pooled human liver microsomes; assay type: biochemical; design: IC50 pHLM; EROD assay; settings: human, microsomes, Table 2; EROD assay
T1 sequence (P05177 2-516): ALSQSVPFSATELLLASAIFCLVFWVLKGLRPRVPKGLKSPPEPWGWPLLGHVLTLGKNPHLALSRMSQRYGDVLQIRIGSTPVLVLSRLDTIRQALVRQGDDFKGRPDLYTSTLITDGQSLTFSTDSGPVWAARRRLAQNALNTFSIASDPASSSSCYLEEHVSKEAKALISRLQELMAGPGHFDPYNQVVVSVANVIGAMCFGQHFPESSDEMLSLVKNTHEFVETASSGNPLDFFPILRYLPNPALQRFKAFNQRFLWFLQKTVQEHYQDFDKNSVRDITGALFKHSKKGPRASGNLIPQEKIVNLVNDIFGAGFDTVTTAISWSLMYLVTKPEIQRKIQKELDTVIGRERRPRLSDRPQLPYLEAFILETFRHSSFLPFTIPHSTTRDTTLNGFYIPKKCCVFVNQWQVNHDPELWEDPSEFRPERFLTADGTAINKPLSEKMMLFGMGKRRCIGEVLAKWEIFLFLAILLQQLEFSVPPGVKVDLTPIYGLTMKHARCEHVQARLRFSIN
Excerpt: (§1) Human liver microsomes were used as a counterscreen to experimentally determine the magnitude of inhibitor selectivity.

CYP1A1 = target: T2, CYP1A1 (Homo sapiens, UniProt P04798); assay: EROD assay in CYP1A1 counter-screen cell line; assay type: cell-based; settings: for SI 1B1:1A1: selectivity index
T2 construct: expressed in transfected cells
T2 sequence (P04798 1-512): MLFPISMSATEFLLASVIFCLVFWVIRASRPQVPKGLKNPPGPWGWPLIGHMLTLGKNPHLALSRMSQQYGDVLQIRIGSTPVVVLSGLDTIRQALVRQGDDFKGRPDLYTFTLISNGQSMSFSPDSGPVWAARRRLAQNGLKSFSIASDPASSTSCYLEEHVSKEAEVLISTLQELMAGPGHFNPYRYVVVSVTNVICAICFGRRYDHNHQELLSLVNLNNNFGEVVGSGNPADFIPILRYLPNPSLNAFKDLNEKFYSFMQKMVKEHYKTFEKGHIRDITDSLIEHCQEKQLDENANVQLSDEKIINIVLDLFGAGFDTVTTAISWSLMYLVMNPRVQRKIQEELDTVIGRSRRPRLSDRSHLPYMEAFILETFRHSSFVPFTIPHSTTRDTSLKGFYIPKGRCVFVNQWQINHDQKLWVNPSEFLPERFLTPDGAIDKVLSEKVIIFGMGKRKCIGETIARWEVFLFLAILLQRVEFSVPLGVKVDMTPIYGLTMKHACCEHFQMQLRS
Protocol: (§2) The activity of the inhibitors was assessed in a novel cell based assay generated for the purpose of this project. Enzymatic turnover of CYP1B1 was measured using the ethoxy-resorufin-O-deethylase (EROD) assay with the fluorescent substrate, resorufin ethyl ether. Cell lines were generated where the gene for CYP1B1 alone or CYP1B1 and cytochrome P450 reductase (CPR) were both under the control of an inducible promoter. A cell line was generated for counter screening where the gene for CYP1A1 was used. CYP1A1 is the closest family member to CYP1B1.

[2] = target: T1, pooled human liver microsomes (pHLMs); assay: EROD counterscreen in pooled human liver microsomes; assay type: biochemical; settings: for SI 1B1:HLM: selectivity index; for IC50: human, microsomes, Table 3, read-out: IC50 pHLM
Excerpt: as §1

CYP1B1 = target: T3, CYP1B1 (Homo sapiens, UniProt Q16678); assay: EROD assay in inducible CYP1B1 cell line; assay type: cell-based
T3 construct: expressed in transfected cells
T3 sequence (Q16678 1-543): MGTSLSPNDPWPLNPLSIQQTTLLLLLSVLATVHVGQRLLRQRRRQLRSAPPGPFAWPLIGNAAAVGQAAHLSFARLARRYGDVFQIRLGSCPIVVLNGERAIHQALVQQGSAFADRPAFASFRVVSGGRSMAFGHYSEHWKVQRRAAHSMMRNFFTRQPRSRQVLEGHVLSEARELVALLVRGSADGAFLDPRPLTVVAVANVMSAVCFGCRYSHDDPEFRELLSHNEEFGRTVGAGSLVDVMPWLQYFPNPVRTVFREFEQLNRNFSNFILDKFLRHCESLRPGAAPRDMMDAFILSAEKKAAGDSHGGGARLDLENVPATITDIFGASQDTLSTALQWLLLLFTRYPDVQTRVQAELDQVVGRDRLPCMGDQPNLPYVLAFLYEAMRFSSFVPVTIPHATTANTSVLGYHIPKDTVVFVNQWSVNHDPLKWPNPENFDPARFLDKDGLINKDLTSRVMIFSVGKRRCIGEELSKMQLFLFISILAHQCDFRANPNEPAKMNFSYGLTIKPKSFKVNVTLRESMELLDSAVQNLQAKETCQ
Protocol: as §2

HEK = assay: Cytotoxicity, resazurin, 72 hours after compound addition; assay type: cell-based
Protocol: Cytotoxicity was assessed at 72 hours after compound addition using resazurin. The compounds that function as selective 1B1 inhibitors had no effect on cell health. This is an essential feature for any chemopreventative agent or molecules intended to block the detrimental action of an enzyme.

[3] = Table 2, EROD assay, read-out: IC50 CYP1A1
[4] = Table 2, EROD assay, read-out: IC50 CYP1B1
[5] = human, probe resorufin ethyl ether, Table 3, read-out: IC50 1A1
[6] = Table 1, 72 hours, resazurin, read-out: Cytotoxicity IC50
[7] = Table 3, HEK, read-out: HEK cytotoxicity

SMILES | IC50 (CYP1A1; Table 3, read-out: IC50 1A1) | HEK cell viability % at 10 μM (HEK; Table 3, HEK) [%] | IC50 (CYP1B1; Table 3, read-out: IC50 1B1) | IC50 [2] [nM] | further results
Oc1ccc(-c2csc(-c3cccnc3)n2)cc1 [GL671] | – | – | – | – | IC50 [1]: 526 nM; IC50 (CYP1A1; [3]): 1410 nM; SI 1B1:1A1 (CYP1A1): 0.63; SI 1B1:HLM [2]: 0.024; IC50 (CYP1B1; [4]): 2230 nM
COc1ccc(-c2nc3ccccc3c(=O)n2CC#N)c(OC)c1 [GL519] | > 10000 nM | 88.7 | 970 nM | – | –
COc1ccc(/C=C/c2cncnc2)c(OC)c1 [GL458] | 4130 nM and 2500 nM | 95.8 | 2510 nM | 2260 ± 1050 | –
COc1ccc(/C=C/c2cc[n+](C)cn2)c(OC)c1.[I-] [GL461] | > 10000 nM | 103 | 13900 nM | – | –
COc1cc(OC)cc(-c2nc(-c3cccc(C(F)(F)F)c3)cs2)c1 [GL684] | – | – | – | – | IC50 [1]: > 10000 nM; IC50 (CYP1A1; [3]): 2780 nM; SI 1B1:1A1 (CYP1A1): >27800; SI 1B1:HLM [2]: >1000000; IC50 (CYP1B1; [4]): < 0.01 nM
COc1ccc(/C=C/c2cccnc2)c(OC)c1 [GL457] | 403 nM and 360 nM | 91.5 | 310 nM | 420 ± 240 | –
C#CCOc1ccc(/C=C/c2ccncn2)cc1 [GL508] | 5600 nM | 93.4 | 105 nM | 32900 | IC50 (CYP1A1; [5]): 10000 nM
COc1ccc(-c2nc(O)c3ccccc3n2)c(OC)c1 [GL512] | 2400 nM and 1040 nM | 85.3 | 11.6 nM | 16900 | –
COc1cc(OC)c(/C=C/c2ccncn2)c(OC)c1 [GL456] | > 10000 nM | 93.6 | 210 nM | 150 ± 80 | IC50 (CYP1A1; [5]): 10000 nM
COc1ccc(-c2nc3ccccc3c(=O)n2C)c(OC)c1 [GL517] | > 10000 nM | 107 | > 500 nM | 146000 | –
COc1ccc(-c2nc3ccc(I)cc3c(=O)[nH]2)c(OC)c1 [GL513] | 121 nM and 75 nM and 91 nM | 83.4 | 36 nM | 26200 | –
COc1cc(/C=C/c2ccncn2)cc(OC)c1OC [GL465] | 730 nM and 740 nM | 83.4 | 260 nM | 4400 ± 1710 | –
C#CCOc1ccc(-c2nc3ccc(I)cc3c(=O)[nH]2)cc1 [GL516] | 4580 nM and 2460 nM and 1900 nM | 40.8 | 14 nM | 126000 | –
COc1cc(OC)cc(-c2nc(-c3ccc(F)cc3)cs2)c1 [GL683] | – | – | – | – | IC50 [1]: > 10000 nM; IC50 (CYP1B1; [4]): < 0.01 nM
COc1ccc(/C=C/c2ccccc2)c(OC)c1 [GL469] | 4460 nM and > 10000 nM | 124.2 | – | 6000 | –
COc1cc(/C=C/c2cnccn2)cc(OC)c1 [GL437] | 4280 nM and 3290 nM | 103.1 | 660 nM | 5270 ± 1600 | –
O=c1[nH]c(-c2ccc(OC/C(I)=C\I)cc2)nc2ccccc12 [GL511] | > 10000 nM | 64.3 | 11.8 nM | 7710 | –
COc1ccc(-c2csc(-c3cccnc3)n2)c(OC)c1 [GL654] | – | – | – | – | IC50 [1]: 0.1 nM; IC50 (CYP1A1; [3]): 151 nM; SI 1B1:1A1 (CYP1A1): 7.6; SI 1B1:HLM [2]: 0.00082; IC50 (CYP1B1; [4]): 19.8 nM
C#CCn1c(-c2ccc(OC)cc2OC)nc2ccc(I)cc2c1=O [GL514] | 4420 nM and 3500 nM | 72.5 | 660 nM | 105000 | –
N#CCOc1ccc(-c2nc3ccccc3[nH]2)cc1 [GL523] | > 10000 nM | 93.4 | – | – | –
COc1cc(/C=C/c2ccncn2)cc(OC)c1 [GL443] | > 10000 nM | 105.2 | 760 nM | 2300 ± 980 | –
Oc1ccc(-c2csc(-c3ccccn3)n2)cc1 [GL672] | – | – | – | – | IC50 [1]: 1650 nM; IC50 (CYP1A1; [3]): 1320 nM; SI 1B1:1A1 (CYP1A1): 1.3; SI 1B1:HLM [2]: 1.63; IC50 (CYP1B1; [4]): 1020 nM
COc1ccc(-c2nc(-c3ccc(F)c(C(F)(F)F)c3)cs2)c(OC)c1 [GL674] | – | – | – | – | IC50 [1]: > 10000 nM; IC50 (CYP1A1; [3]): 5080 nM; SI 1B1:1A1 (CYP1A1): 5187; SI 1B1:HLM [2]: >10204; IC50 (CYP1B1; [4]): 0.98 nM
COc1cc(-c2nc3ccccc3c(=O)[nH]2)ccc1OCC#N [GL522] | 2270 nM and 970 nM | 80.6 | – | > 10000 | –
O=c1cc(-c2ccccc2)oc2c1ccc1ccccc12 [ANF, reference compound] | – | – | – | – | IC50 (HEK; [6]): > 10000 nM; IC50 (HEK; [7]): > 10000 nM
COc1cc(/C=C/c2ccc(OC)cc2OC)cc(OC)c1 [TMS, reference compound] | – | – | – | – | IC50 (HEK; [6]): 10000 nM; IC50 (HEK; [7]): > 10000 nM; IC50 (CYP1B1; Table 1, read-out: CYP1B1 IC50): 8.3 nM
N#CCOc1ccc(-c2nc3ccccc3[nH]2)cc1 [GL509] | 5500 nM and 3500 nM | 75 | – | 8360 | –
N#CCOc1ccc(-c2nc3ccccc3c(=O)[nH]2)cc1 [GL520] | 2570 nM | 89 | 0.88 nM and 0.92 nM | 1740 | –
COc1ccc(/C=C/c2cnccn2)c(OC)c1 [GL435] | 2600 nM | 71.4 | 510 nM | 1570 ± 290 | –
